# Experimental data published in patent US20210386753A1, “METHODS OF ADMINISTERING INTRAVENOUS MELOXICAM PRE-OPERATIVELY AND IN COMBINATION WITH OTHER DRUGS” (BAUDAX BIO, INC., priority 2018, published 2021).
# Like-named read-outs stand apart in the source and are kept apart here.
# What was measured:
# [1] = tested on: patients; conditions: intravenous; Prescribing Information; cited from earlier work
# [2] = Plasma Tmax of meloxicam; type: in vivo; conditions: human, 30 mg, methods as disclosed herein (IV bolus)
# [3] = tested on: patients; assay: Onset, peak and duration of analgesic effect; type: in vivo, human; conditions: meloxicam administration as disclosed herein (IV)
# [4] = following oral administration, cited from earlier work
Tmax [2] [min],Structure (SMILES),time for the onset of pain relief [1],therapeutic window [3],time of maximum observed plasma concentration (tmax) [4] [h],time of maximum observed plasma concentration (tmax) ([4]; listed as oral meloxicam) [h]
,O=C(c1ccccc1)c1ccc2n1CCC2C(=O)O (centres unmarked) [ketorolac],up to 30 minutes,,,
4.8 to 9.6,"Cc1cnc(NC(=O)C2=C(O)c3ccccc3S(=O)(=O)N2C)s1 [meloxicam, 4-hydroxy-2-methyl-N-(5-methyl-2-thiazolyl)-2H-1,2-benzothiazine-3-carboxamide-1,1-dioxide]",,at least 24 hours,5 to 7,5 to 6
